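These data come from cells grown in 96-well plates and exposed to compound for 48 hours at five concentrations. GI50 = concentration required for 50% inhibition of growth. TGI is the concentration that stops growth completely.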
How the values were obtained:
Assay in all cases: growth of human tumour cells (NCI), 48 h
[1] = test system: SK-MEL-28 melanoma
[2] = test system: EKVX NSCLC
[3] = test system: M14 melanoma
[4] = test system: MALME-3M melanoma
[5] = test system: OVCAR-3 ovarian
[6] = test system: NCI-H522 lung
[7] = test system: KM12 colon
[8] = test system: HL-60(TB) leukemia
[9] = test system: SK-MEL-5 melanoma
[10] = test system: COLO 205 colon
[11] = test system: T-47D breast
[12] = test system: NCI-H460 lung
[13] = test system: UACC-257 melanoma
[14] = test system: RXF 393 renal
[15] = test system: BT-549 breast
[16] = test system: 786-0 renal
[17] = test system: HCT-15 colon
[18] = test system: MOLT-4 leukemia
[19] = test system: K-562 leukemia
[20] = test system: ACHN renal
[21] = test system: SN12C renal
[22] = test system: SNB-75 CNS
[23] = test system: SF-268 CNS
[24] = test system: OVCAR-5 ovarian
[25] = test system: UACC-62 melanoma
[26] = test system: NCI/ADR-RES ovarian
[27] = test system: U251 CNS
[28] = test system: SNB-19 CNS
[29] = test system: NCI-H23 lung
[30] = test system: DU-145 prostate
[31] = test system: A549 NSCLC
[32] = test system: SK-OV-3 ovarian
[33] = test system: LOX IMVI melanoma
[34] = test system: SF-295 CNS
[35] = test system: TK-10 renal
[36] = test system: MCF7 breast
[37] = test system: OVCAR-8 ovarian
[38] = test system: A498 renal
[39] = test system: SK-MEL-2 melanoma
[40] = test system: HOP-62 NSCLC
[41] = test system: CCRF-CEM leukemia
[42] = test system: HOP-92 NSCLC
[43] = test system: UO-31 renal
[44] = test system: NCI-H226 lung
[45] = test system: RPMI-8226 leukemia
[46] = test system: HCT-116 colon
[47] = test system: HCC-2998 colon
[48] = test system: SR leukemia
[49] = test system: SW-620 colon
[50] = test system: IGROV1 ovarian
[51] = test system: SF-539 CNS
[52] = test system: PC-3 prostate
[53] = test system: OVCAR-4 ovarian
[54] = test system: HT29 colon
[55] = test system: MDA-MB-231 breast
[56] = test system: HS 578T breast
[57] = test system: MDA-MB-435
[58] = test system: CAKI-1 renal

## COc1cc(O)c2c(c1)[C@H]1O[C@@H]1C[C@H](O)[C@H](O)C(=O)/C=C\C[C@H](C)OC2=O
[1]
  GI50: 0.0445 µM
  TGI: 2.32 µM
[2]
  GI50: 3.88 µM
  TGI: > 30.8 µM
[3]
  GI50: 0.0483 µM
  TGI: 6.84 µM
[4]
  GI50: 0.00553 µM
  TGI: 0.0231 µM
[5]
  GI50: 2.49 µM
  TGI: 16.5 µM
[6]
  GI50: 0.599 µM
  TGI: 6.42 µM
[7]
  GI50: 12.2 µM
  TGI: > 33.3 µM
[8]
  GI50: 0.197 µM
  TGI: > 10.6 µM
[9]
  GI50: 1.58 µM
  TGI: 10.3 µM
[10]
  GI50: 0.0226 µM
  TGI: 4.02 µM
[11]
  GI50: 0.774 µM
  TGI: 18.3 µM
[12]
  GI50: 4.96 µM
  TGI: > 21.2 µM
[13]
  GI50: 0.0584 µM
  TGI: 0.525 µM
[14]
  GI50: 1.56 µM
  TGI: 8.19 µM
[15]
  GI50: 1.18 µM
  TGI: 10.7 µM
[16]
  GI50: 4.87 µM
  TGI: 27.4 µM
[17]
  GI50: 1.81 µM
  TGI: 23.4 µM
[18]
  GI50: 2.65 µM
  TGI: > 33.3 µM
[19]
  GI50: 2.09 µM
  TGI: > 33.3 µM
[20]
  GI50: 2.14 µM
  TGI: > 33.3 µM
[21]
  GI50: 5.25 µM
  TGI: > 27.7 µM
[22]
  GI50: 6.11 µM
  TGI: > 33.3 µM
[23]
  GI50: 6.54 µM
  TGI: > 28.5 µM
[24]
  GI50: 3.98 µM
  TGI: > 33.3 µM
[25]
  GI50: 0.114 µM
  TGI: 5.33 µM
[26]
  GI50: 8.56 µM
  TGI: > 33.3 µM
[27]
  GI50: 8.57 µM
  TGI: > 33.3 µM
[28]
  GI50: 8.59 µM
  TGI: > 33.3 µM
[29]
  GI50: 1.95 µM
  TGI: > 27.3 µM
[30]
  GI50: 3.53 µM
  TGI: > 33.3 µM
[31]
  GI50: 16.7 µM
  TGI: > 33.3 µM
[32]
  GI50: 24 µM
  TGI: > 33.3 µM
[33]
  GI50: 1.25 µM
  TGI: > 19.3 µM
[34]
  GI50: 9.57 µM
  TGI: > 33.3 µM
[35]
  GI50: 1.69 µM
  TGI: 20.3 µM
[36]
  GI50: 2.09 µM
  TGI: > 33.3 µM
[37]
  GI50: 6.08 µM
  TGI: > 28.6 µM
[38]
  GI50: 1.93 µM
  TGI: 9.51 µM
[39]
  GI50: 1.68 µM
  TGI: 10.5 µM
[40]
  GI50: 8.97 µM
  TGI: > 29.7 µM
[41]
  GI50: 1.54 µM
  TGI: > 33.3 µM
[42]
  GI50: 0.176 µM
  TGI: 2.88 µM
[43]
  GI50: 0.561 µM
  TGI: > 21.6 µM
[44]
  GI50: 3.71 µM
  TGI: > 27.1 µM
[45]
  GI50: 1.5 µM
  TGI: 14.5 µM
[46]
  GI50: 0.779 µM
  TGI: > 17.5 µM
[47]
  GI50: 4.85 µM
  TGI: 19 µM
[48]
  GI50: 3.08 µM
  TGI: > 30.6 µM
[49]
  GI50: 0.56 µM
  TGI: 6.36 µM
[50]
  GI50: 1.27 µM
  TGI: > 33.3 µM
[51]
  GI50: 4.68 µM
  TGI: 12.6 µM
[52]
  GI50: 11.5 µM
  TGI: > 33.3 µM
[53]
  GI50: 1.07 µM
  TGI: > 33.3 µM
[54]
  GI50: 0.0883 µM
  TGI: 13.4 µM
[55]
  GI50: 2.05 µM
  TGI: 16.2 µM
[56]
  GI50: 5.92 µM
  TGI: 27 µM
[57]
  GI50: 0.298 µM
  TGI: 7.15 µM

## CN1CCN(c2ccc(Nc3nc(NCCCNS(=O)(=O)c4cccc5ccccc45)c4sccc4n3)cc2)CC1
[1]
  GI50: 1.73 µM
  TGI: 3.22 µM
[2]
  GI50: 7.21 µM
  TGI: 20.7 µM
[3]
  GI50: 1.9 µM
  TGI: 3.48 µM
[4]
  GI50: 1.79 µM
  TGI: 3.19 µM
[5]
  GI50: 3.32 µM
  TGI: 10.5 µM
[6]
  GI50: 1.81 µM
  TGI: 3.92 µM
[7]
  GI50: 4.67 µM
  TGI: 22.7 µM
[8]
  GI50: 2.06 µM
  TGI: 4.74 µM
[9]
  GI50: 1.78 µM
  TGI: 3.19 µM
[10]
  GI50: 2.12 µM
  TGI: 4.31 µM
[11]
  GI50: 2.76 µM
  TGI: 9 µM
[12]
  GI50: 3.44 µM
  TGI: 10.6 µM
[13]
  GI50: 1.83 µM
  TGI: 3.54 µM
[15]
  GI50: 5.23 µM
  TGI: 21.4 µM
[16]
  GI50: 1.78 µM
  TGI: 3.44 µM
[17]
  GI50: 1.78 µM
  TGI: 3.53 µM
[18]
  GI50: 2.93 µM
  TGI: 11.9 µM
[19]
  GI50: 3.1 µM
  TGI: > 100 µM
[20]
  GI50: 3.39 µM
  TGI: 10.6 µM
[21]
  GI50: 6.48 µM
  TGI: 19.7 µM
[22]
  GI50: 12.7 µM
  TGI: 25.4 µM
[23]
  GI50: 3.43 µM
  TGI: 20.8 µM
[24]
  GI50: 4.51 µM
  TGI: 16.5 µM
[25]
  GI50: 1.69 µM
  TGI: 3.13 µM
[26]
  GI50: 5.29 µM
  TGI: 19.8 µM
[28]
  GI50: 5.75 µM
  TGI: 18.3 µM
[29]
  GI50: 7.35 µM
  TGI: 22.3 µM
[30]
  GI50: 6.23 µM
  TGI: 20.5 µM
[31]
  GI50: 3.42 µM
  TGI: 19.9 µM
[32]
  GI50: 20.8 µM
  TGI: 39.5 µM
[33]
  GI50: 1.66 µM
  TGI: 3.05 µM
[34]
  GI50: 1.86 µM
  TGI: 3.81 µM
[35]
  GI50: 4.54 µM
  TGI: 16.5 µM
[36]
  GI50: 2.2 µM
  TGI: 5.25 µM
[37]
  GI50: 4.44 µM
  TGI: 23.5 µM
[38]
  GI50: 2.86 µM
  TGI: 9.4 µM
[39]
  GI50: 2.36 µM
  TGI: 5.79 µM
[40]
  GI50: 15.3 µM
  TGI: 32.4 µM
[41]
  GI50: 3.35 µM
  TGI: > 100 µM
[42]
  GI50: 7.45 µM
  TGI: 27.7 µM
[43]
  GI50: 2.35 µM
  TGI: 7.81 µM
[58]
  GI50: 3.85 µM
  TGI: 14.7 µM
[44]
  GI50: 12.2 µM
  TGI: 34.4 µM
[46]
  GI50: 2.27 µM
  TGI: 6.14 µM
[47]
  GI50: 1.97 µM
  TGI: 4.37 µM
[49]
  GI50: 2.02 µM
  TGI: 4.04 µM
[50]
  GI50: 2.92 µM
  TGI: 10.2 µM
[51]
  GI50: 1.72 µM
  TGI: 3.11 µM
[52]
  GI50: 5.69 µM
  TGI: > 100 µM
[53]
  GI50: 3.43 µM
  TGI: 13 µM
[54]
  GI50: 2.41 µM
  TGI: 7.52 µM
[55]
  GI50: 2.08 µM
  TGI: 4.06 µM
[56]
  GI50: 2.32 µM
  TGI: 7.61 µM
[57]
  GI50: 1.76 µM
  TGI: 3.21 µM
